According to patent publication US10085973B2, “Pharmaceutical composition containing a compound having a thrombopoietin receptor agonistic activity” (Shionogi & Co., Ltd., priority 2012, dated 2018):
Values after ≈ are worked out from the molar mass of the structure shown. Read-outs that look alike come from different tables or passages of the source.

Tests used:
Format in all cases: in vivo, human
platelet count = assay: PD model from phase 1 trial in healthy male adults (profile of platelet count); details: for EC50: Homo sapiens, Platelet, read-out: EC50 (sigmoid Emax model), mean
Excerpt: (§1) Using the plasma concentration of the drug and the platelet count data of 54 cases obtained in phase 1 trial carried out in Japan to healthy male adults, a PK/PD model was constructed that can describe pharmacokinetics and a profile of a platelet count. The PK model describing pharmacokinetics was a three-compartment model including three compartments in the absorption process in order to explain the delay in absorption. The PD model describing the relation between the plasma concentration and the profile of platelets counts was a model including five compartments in order to explain the maturation process of platelets. […] We assumed that the distributions of respective model parameters and the distributions of the residual errors of the models follow a log-normal distribution. Parameters were estimated by using the first order conditional estimation method with interaction in a software NONMEM (version VI, level 2.0).

[1] = test system: patients with thrombocytopenia caused by chronic liver disease; assay: Example 2 Test Example 2: placebo-controlled repeated oral administration before percutaneous liver ablation with discontinuation criteria
Excerpt: To patients with thrombocytopenia caused by chronic liver disease, lusutrombopag as a pretreatment of percutaneous liver ablation was orally administered repeatedly for 7 days while applying the discontinuation criteria designed in Example 1 and profile of the platelet count was studied. In the present Example, the term “ablation” refers to radiofrequency ablation.
Patients with thrombocytopenia caused by chronic liver disease who are scheduled to undergo percutaneous liver ablation.
Patients who meet the following inclusion criteria are included. • 1) Age: 20 years of age or older (at the time of consent); • 2) Patients who themselves can give a consent in writing; • 3) Patients with thrombocytopenia caused by chronic liver disease; • 4) Patients who are scheduled to undergo percutaneous liver ablation for primary liver cancer; • 5) Patients having a platelet count which is less than 5×10^4/μL at the time of screening; • 6) Patients whose ECOG* Performance Status of Grade is 0 to 1; and • 7) Patients who can practice contraception from entry to the end of observation. (Exclusion Criteria)
Patients who meet the following criteria are excluded. • 1) Patients who underwent splenectomy; • 2) Patients who have a complication presenting thrombocytopenia; • 3) Patients who underwent liver transplant; • 4) Degree of hepatic disorder classified as the Child-Pugh class of C; • 5) Hepatic encephalopathy uncontrolled by medicaments; • 6) Ascites uncontrolled by medicaments; • 7) Patients who have a complication of malignant tumor other than primary liver cancer; • 8) Patients who have a complication or a history of thrombosis or thrombotic disease; • 9) Patients who have absence of hepatopetal blood flow in the portal vein; • 10) Patients who have a complication or a history of disease with hemorrhage risk; • 11) Patients who received a therapeutic agent that affects a platelet count or underwent a therapy that affects a platelet count within 90 days before registry; • 12) Patients who received a blood product (excluding erythrocyte product) within 14 days before registry; or • 13) Patients who previously received a TPO receptor agonist. (Drugs which are Prohibited, Limited or Allowed for Coadministration During the Trial)
In each allocated group, lusutrombopag is orally administered repeatedly once daily for 7 days. After patients are monitored on day 8, they undergo percutaneous liver ablation before day 14 from initiation of administration. They are monitored until about day 30 after initiation of administration.
Lusutrombopag is orally administered repeatedly once daily for 7 days. On day 1, the drug is administered at the time of visit. On day 5 to day 7, the drug shall be administered after checking the platelet count measured on the same day. Administration of lusutrombopag shall be discontinued when the platelet count reaches to the following criteria (administration discontinuating criteria) in a clinical examination after administration of the investigational drug.
Administration discontinuating criteria: when the platelet count has increased by 2×10^4/μL or more from the platelet count before initiation of administration and the platelet count has reached to 5×10^4/μL or higher.
As the platelet count before initiation of administration, the platelet count determined within 7 days before initiation of administration was used.
Daily dose was any one of 2.0, 3.0 and 4.0 mg of lusutrombopag.
Proportion of patients who have a platelet count on day 8 after initiation of administration that increased by 2×10^4/μL or more from a platelet count before initiation of administration and reached to 5×10^4/μL or higher. […]

[2] = PK model from phase 1 trial in healthy male adults (plasma concentration)
Excerpt: as §1

patients who had a platelet count of higher than 20×10^4/μL during the observation period ([1]; daily dose 2.0, 3.0 and 4.0 mg): None
CL (apparent total clearance), mean [2]: 0.776 L/h
Intra-individual variability (PK model, plasma concentration) [2]: 12.1%
Q3/F (inter-compartmental clearance), mean [2]: 0.946 L/h
Q4/F (inter-compartmental clearance), mean [2]: 0.0262 L/h
V3/F (volume of distribution of peripheral compartment), mean [2]: 6.28 L
V4/F (volume of distribution of peripheral compartment), mean [2]: 2.71 L
ka (transfer rate constant from absorption compartments to central compartment), mean ([2]; Fasting + solution): 0.563 h⁻¹
ktr (inter-absorption-compartmental transfer rate constant), mean ([2]; Fasting + solution): 4.19 h⁻¹
ka (transfer rate constant from absorption compartments to central compartment), mean ([2]; Postprandial + solution): 0.285 h⁻¹
ktr (inter-absorption-compartmental transfer rate constant), mean ([2]; Postprandial + solution): 2.15 h⁻¹
ka (transfer rate constant from absorption compartments to central compartment), mean ([2]; Postprandial + tablet): 0.854 h⁻¹
ktr (inter-absorption-compartmental transfer rate constant), mean ([2]; Postprandial + tablet): 1.38 h⁻¹
Compound: CCCCCCO[C@@H](C)c1cccc(-c2csc(NC(=O)c3cc(Cl)c(/C=C(\C)C(=O)O)c(Cl)c3)n2)c1OC [lusutrombopag, (E)-3-[2,6-dichloro-4-[4-[3-[(S)-1-hexyloxyethyl]-2-methoxyphenyl]-thiazol-2-ylcarbamoyl]-phenyl]-2-methylacrylic acid]
Emax (sigmoid Emax model), mean (platelet count): 3.52
kdeg (elimination rate constant from the platelet compartment), mean (platelet count): 1.61e-06 s⁻¹
km (inter-PD-compartmental transfer rate constant), mean (platelet count): 0.0394 h⁻¹
r (sigmoid Emax model), mean (platelet count): 2.03
EC50 (platelet count; 50 mg/dose): 0.0216 µg/mL (≈ 0.0365 µM)
EC50 (platelet count; <50 mg/dose): 0.0647 µg/mL (≈ 0.109 µM)
Endpoint 2: Number of patients who had a platelet count during the trial that increased by 2 × 10^4/μL or more from the count before initiation of administration and reached to 5 × 10^4/μL or higher ([1]; 2.0 mg once daily, n = 15): 10
Number of patients to whom administration was discontinued according to the administration discontinuating criteria ([1]; 2.0 mg once daily, n = 15): 3
Number of patients who received platelet transfusion ([1]; 2.0 mg once daily, n = 15): 3
Endpoint 2: Number of patients who had a platelet count during the trial that increased by 2 × 10^4/μL or more from the count before initiation of administration and reached to 5 × 10^4/μL or higher ([1]; 3.0 mg once daily, n = 16): 11
Number of patients to whom administration was discontinued according to the administration discontinuating criteria ([1]; 3.0 mg once daily, n = 16): 3
Number of patients who received platelet transfusion ([1]; 3.0 mg once daily, n = 16): 3
Endpoint 2: Number of patients who had a platelet count during the trial that increased by 2 × 10^4/μL or more from the count before initiation of administration and reached to 5 × 10^4/μL or higher ([1]; 4.0 mg once daily, n = 15): 12
Number of patients to whom administration was discontinued according to the administration discontinuating criteria ([1]; 4.0 mg once daily, n = 15): 5
Number of patients who received platelet transfusion ([1]; 4.0 mg once daily, n = 15): 4
efficacy at each dose ([1]; all doses (2.0, 3.0 and 4.0 mg)): all doses showed the efficacy
Vd/F ([2]; male, human, plasma, oral, × (1 + (BW − 63) × 0.0172), BW body weight kg, read-out: V2/F (volume of distribution of the central compartment), mean): 15.9 L
